# Measurements published in patent US20140309221A1, “METHOD OF INHIBITING HAMARTOMA TUMOR CELLS” (DANA-FARBER CANCER INSTITUTE, INC., priority 2011, published 2014).
# Entries after “also recorded” stand apart in the source; their conditions may differ.
# Columns and labels:
# [1] = system: PHTS symptoms in K14-cre-Pten f/f mice; test: Administration to K14-cre-Pten f/f mice with fully developed PHTS: relief of symptoms; format: in vivo
# Protocol: (§1) 4-(Trifluoromethyl)-5-(2,6-dimorpholinopyrimidin-4-yl)pyridin-2-amine powder was dissolved in 1 volume of NMP (1-methyl-2-pyrrolidone). After dissolution (if needed, in warm water), add 9 volumes of PEG300. The final ratio is: NMP 10%/PEG300 90%.
# Pten f/f mice (Lesche, R., et al., Cre/loxP-mediated inactivation of the murine Pten tumor suppressor gene. Genesis, 2002. 32(2): 148-9) were crossed with K14-cre mice (Jonkers, J., et al., Synergistic tumor suppressor activity of BRCA2 and p53 in a conditional mouse model for breast cancer. Nat Genet, 2001. 29(4): 418-25) to generate K14-Cre Pten f/f mice in which the floxed Pten allele is deleted specifically in the keratinocytes by the K14-driven Cre recombinase. These mice were further crossed with p110a f/f (Zhao, J. J., et al., The p110 alpha isoform of PI3K is essential for proper growth factor signaling and oncogenic transformation. Proc Natl Acad Sci USA, 2006. 103(44): 16296-300) and p110b f/f mice (Jia, S., et al., Essential roles of PI(3)K-p110beta in cell growth, metabolism and tumorigenesis. Nature, 2008) to generate K14-cre Pten f/f, K14-cre Pten f/f; p110a f/f, K14-cre Pten f/f; p110b f/f, and K14-cre-Pten f/f; p110a f/f; p110b f/f mice. Keratinocyte-specific deletion of Pten results in multiple dermal lesions in the K14-cre Ptenf/f mice that resemble multiple skin hamartomas of PHTS. […]
# [2] = system: PHTS symptoms in K14-cre-Pten f/f mice; test: Early administration: prevention of PHTS symptom development in K14-cre-Pten f/f mice; format: in vivo; settings: 25 mg/kg daily by oral gavage beginning at 3 weeks of age
# Protocol: as §1
# Pten f/f mice (Lesche, R., et al., Cre/loxP-mediated inactivation of the murine Pten tumor suppressor gene. Genesis, 2002. 32(2): 148-9) were crossed with K14-cre mice (Jonkers, J., et al., Synergistic tumor suppressor activity of BRCA2 and p53 in a conditional mouse model for breast cancer. Nat Genet, 2001. 29(4): 418-25) to generate K14-Cre Pten f/f mice in which the floxed Pten allele is deleted specifically in the keratinocytes by the K14-driven Cre recombinase. […]
# K14-cre-Pten f/f mice were treated daily with 25 mg/kg 4-(trifluoromethyl)-5-(2,6-dimorpholinopyrimidin-4-yl)pyridin-2-amine by oral gavage beginning at 3 weeks of age and the development of PHTS symptoms monitored. […]
smiles,measurement,setting,value
"Nc1cc(C(F)(F)F)c(-c2cc(N3CCOCC3)nc(N3CCOCC3)n2)cn1 [COMPOUND A, 4-(trifluoromethyl)-5-(2,6-dimorpholinopyrimidin-4-yl)pyridin-2-amine]",relief of PHTS symptoms,"[1]; K14-cre-Pten f/f mice with fully developed PHTS (12-14 weeks of age), 45 mg/kg daily by oral gavage for 4 weeks, 45 mg/kg",dramatically relieved the PHTS symptoms; also recorded: completely reversed the phenotype of PHST
same,PHTS symptoms at the end of the 4-week treatment,"[1]; K14-cre-Pten f/f mice with fully developed PHTS, 45 mg/kg daily by oral gavage, end of 4 weeks",substantially or completely reduced
same,development of PHTS symptoms (PHTS free survival),[2]; n=12,remained free of PHTS symptoms
same,development of PHTS symptoms (PHTS free survival),"[2]; n=12, listed as 4-(trifluoromethyl)-5-(2,6-dimorpholinopyrimidin-4-yl)pyridin-2-amine",remained free of PHTS symptoms; also recorded: entirely blocked appearance of PHTS
